“And” between values parts separate entries of the source, which are not always exact repeats. Identical values can stand only once. Like-named read-outs stand apart in the source and are kept apart here.
Key:
RKN cells = experiment: RKN cell profiling assay (cell viability, CellTiter-Glo); format: cell-based; conditions: read-out: Cell Killing EC50
How it was run: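 Cells seeded at 1,000/well in F-12 with 10% FBS, left to adhere 24 h, then compound-treated for 96 h at 0.5% final DMSO. Viability by CellTiter-Glo luminescence; EC50 from four-parameter logistic fit. Ferroptosis rescue runs included 1.5 μM ferrostatin-1 added at seeding.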

human recombinant GCL = human recombinant GCL (Homo sapiens (Human), UniProt P48506); experiment: GCL enzyme profiling assay (ADP-Glo luminescence); format: biochemical; conditions: read-out: GCL IC50
How it was run: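 ADP-Glo luminescence readout; 5 nM enzyme preincubated 1 h at 22 °C with 0.6 mM ATP, then started with 1 mM glutamate and 1.2 mM α-aminobutyrate, stopped after 2 h. Buffer: HEPES pH 7.5, MgCl2, DTT, BSA, 0.2% F-127, 1% DMSO. IC50 from four-parameter logistic fit.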

[1] = human recombinant GCL 5 nM, 1 h preincubation with ATP

human recombinant GCL, sequence (P48506 whole entry): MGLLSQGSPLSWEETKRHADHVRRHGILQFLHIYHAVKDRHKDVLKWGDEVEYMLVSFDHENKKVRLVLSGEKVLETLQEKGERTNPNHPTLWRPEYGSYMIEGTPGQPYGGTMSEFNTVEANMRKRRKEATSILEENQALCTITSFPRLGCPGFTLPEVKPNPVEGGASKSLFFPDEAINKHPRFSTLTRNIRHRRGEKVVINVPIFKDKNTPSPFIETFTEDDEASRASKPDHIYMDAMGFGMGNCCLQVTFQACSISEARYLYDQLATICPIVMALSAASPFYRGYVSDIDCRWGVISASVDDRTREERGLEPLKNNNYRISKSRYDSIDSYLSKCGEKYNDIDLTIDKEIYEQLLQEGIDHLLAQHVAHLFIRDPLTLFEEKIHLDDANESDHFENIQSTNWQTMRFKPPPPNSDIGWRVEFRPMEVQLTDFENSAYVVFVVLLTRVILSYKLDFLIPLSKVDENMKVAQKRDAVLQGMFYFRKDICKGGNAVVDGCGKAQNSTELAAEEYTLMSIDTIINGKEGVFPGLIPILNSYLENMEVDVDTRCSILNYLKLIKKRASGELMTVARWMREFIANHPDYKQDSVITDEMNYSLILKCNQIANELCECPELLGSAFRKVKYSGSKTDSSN

Row | Compound | EC50 (RKN cells; 96 h, 96 h exposure) [µM] | IC50 (human recombinant GCL; [1]) | EC50 (RKN cells; cell viability) [µM] | IC50 (human recombinant GCL; human recombinant GCL, ADP-Glo) [µM]
1 | N=S(=O)(CCC1CCCCC1)CC[C@H](N)C(=O)O (some centres unmarked) [Compound 142] | ≥ 1000 | ≤ 20 µM |  | 
2 | CC(C)OCCS(=N)(=O)CC[C@H](N)C(=O)O (some centres unmarked) [Compound 166] | ≥ 1000 | 20 to 2000 µM |  | 
3 | CC(C)(C)OC(=O)[C@@H](N)CC[S@@](=N)(=O)CCCC(F)(F)F [Compound 93] | < 1000 | 20 to 2000 µM |  | 
4 | N=[S@](=O)(CC[C@H](N)C(=O)O)CCC1(c2ccccn2)CCC1 [compound 389] |  |  | ≥ 1000 | > 2000
5 | N=S(=O)(CCC(Cc1ccccc1)C(F)(F)F)CC[C@H](N)C(=O)O (stereo partly drawn) [Compound 292, (2S)-2-amino-4-(3-benzyl-4,4,4-trifluorobutylsulfonimidoyl)butanoic acid] |  |  | ≥ 1000 | ≤ 20
6 | Cc1cccc(C)c1CCS(=N)(=O)CC[C@H](N)C(=O)O (some centres unmarked) [Compound 32] | ≥ 1000 | 20 to 2000 µM |  | 
7 | CC(C)(C)CCS(=N)(=O)CC[C@H](N)C(=O)N1CCCC1 (some centres unmarked) [Compound 116] | ≥ 1000 | > 2000 µM |  | 
8 | COC(CC[S@@](=N)(=O)CC[C@H](N)C(=O)O)C(F)(F)F (some centres unmarked) [Compound 176] | ≥ 1000 | > 2000 µM |  | 
9 | CC(C)(C)OC(=O)[C@@H](N)CC[S@@](=N)(=O)CC[C@H](O)C(F)(F)F [Compound 489, tert-butyl (S)-2-amino-4-((R,3S)-4,4,4-trifluoro-3-hydroxybutylsulfonimidoyl)butanoate] |  |  | ≥ 1000 | > 2000
10 | N=S(=O)(CC[C@H](N)C(=O)O)CCC1(O)CCCCC1 (some centres unmarked) [Compound 297] |  |  | ≥ 1000 | 20 to 2000
11 | N=S(=O)(CC[C@H](N)C(=O)O)CCC(O)(c1nc2ccccc2[nH]1)C(F)(F)F (some centres unmarked) [Compound 343] |  |  | < 1000 | 20 to 2000
12 | N=S(=O)(CCC(c1ccc(-c2ccccc2Cl)cc1)C(F)(F)F)CC[C@H](N)C(=O)O (single isomer, unassigned) [Compound 218] |  |  | ≥ 1000 | 20 to 2000
13 | CC(C)(F)CCS(=N)(=O)CC[C@H](N)C(=O)O (some centres unmarked) [Compound 163] | < 1000 | 20 to 2000 µM |  | 
14 | Cc1ccc(C(C)(C)CCS(=N)(=O)CC[C@H](N)C(=O)O)cc1 (some centres unmarked) [Compound 56] | ≥ 1000 | 20 to 2000 µM |  | 
15 | N=S(=O)(CCc1cn[nH]c1)CC[C@H](N)C(=O)O (some centres unmarked) [Compound 8] | ≥ 1000 | 20 to 2000 µM |  | 
16 | CN(C)C(=O)C1(CCS(=N)(=O)CC[C@H](N)C(=O)O)CCC1 (some centres unmarked) [Compound 193] | ≥ 1000 | 20 to 2000 µM |  | 
17 | N=S(=O)(CCCC(F)(F)F)CC[C@H](N)C(=O)OC1CCCCC1 (some centres unmarked) [Compound 80] | < 1000 | 20 to 2000 µM |  | 
18 | N=S(=O)(CCCC(F)(F)F)CC[C@H](N)c1ncn[nH]1 (stereo partly drawn) [Compound 205, (1S)-1-(1H-1,2,4-triazol-5-yl)-3-(4,4,4-trifluorobutylsulfonimidoyl)propan-1-amine] | ≥ 1000 | ≤ 20 µM and 20 to 2000 µM |  | 
19 | Cc1ccn(C(CCS(=N)(=O)CC[C@H](N)C(=O)O)C(F)(F)F)n1 (some centres unmarked) [Compound 412] |  |  | ≥ 1000 | 20 to 2000
20 | CNC(=O)C(CCS(=N)(=O)CC[C@H](N)C(=O)O)C(F)(F)F (some centres unmarked) [Compound 307] |  |  | < 1000 | 20 to 2000
21 | N=S(=O)(CC[C@H](N)C(=O)O)CCC(O)(C(F)(F)F)C12CC(C1)C2 (some centres unmarked) [Compound 359] |  |  | ≥ 1000 | 20 to 2000
22 | N=S(=O)(CC[C@H](N)C(=O)O)CCC(O)(c1nccs1)C(F)(F)F (some centres unmarked) [Compound 344] |  |  | < 1000 | ≤ 20
23 | N=S(=O)(CCC(C(=O)O)C(F)(F)F)CC[C@H](N)C(=O)O (some centres unmarked) [Compound 306] |  |  | < 1000 | ≤ 20
24 | N=S(=O)(CC[C@H](N)C(=O)O)CCC(O)(C1CCC1)C(F)(F)F (some centres unmarked) [Compound 357] |  |  | ≥ 1000 | ≤ 20
25 | N=S(=O)(CC[C@H](N)C(=O)O)CCC(O)(c1ccc(-c2ccc3ccc(=O)oc3c2)cc1)C(F)(F)F (stereo partly drawn) [Compound 425, (2S)-2-amino-4-(4,4,4-trifluoro-3-hydroxy-3-(4-(2-oxo-2H-chromen-7-yl)phenyl)butylsulfonimidoyl)butanoic acid] |  |  | ≥ 1000 | ≤ 20
26 | N=S(=O)(CCC(C1CCC1)C(F)(F)F)CC[C@H](N)C(=O)O (some centres unmarked) [Compound 383] |  |  | ≥ 1000 | ≤ 20
27 | N=S(=O)(CCc1cccc(Cl)c1Cl)CC[C@H](N)C(=O)O (some centres unmarked) [Compound 25] | ≥ 1000 | 20 to 2000 µM |  | 
28 | COCC(CCS(=N)(=O)CC[C@H](N)C(=O)O)C(F)(F)F (some centres unmarked) [Compound 319] |  |  | < 1000 | 20 to 2000
